Bridge positions count the residues as written; N and C are the ends. Square brackets hold non-standard residues; d marks the D form. Peptide text beside a SMILES is read from it. * marks the point of attachment. ξ: configuration not given here. Phe(4-CONH2) = NC(=O)c1ccc(C[C@H](N)C(=O)O)cc1; Bip = N[C@@H](Cc1ccc(-c2ccccc2)cc1)C(=O)O; Phe(4-NH2) = Nc1ccc(C[C@H](N)C(=O)O)cc1; Phe(3-Me) = Cc1cccc(C[C@H](N)C(=O)O)c1; Cyclopropanecarbonyl = O=C(C1CC1)*; Val(3-OH) = CC(C)(O)[C@H](N)C(=O)O; Cha = N[C@@H](CC1CCCCC1)C(=O)O; Thr(3ξ) = CC(O)[C@H](N)C(=O)O; 12Ado = NCCCCCCCCCCCC(=O)O; Carboxymethyl = O=C(O)C*; Orn = NCCC[C@H](N)C(=O)O; Aun = NCCCCCCCCCCC(=O)O; Dab = NCC[C@H](N)C(=O)O; Dap = NC[C@H](N)C(=O)O; AEEA = NCCOCCOCC(=O)O; Piv = CC(C)(C)C(=O)*

Usually IC50 stands for the concentration at which inhibition is half-maximal.

This experiment deals with T1, PD-1/PD-L1 interaction (PE-labeled human PD-L1-Ig binding to Jurkat cell line over-expressing human PD-1) (Homo sapiens, UniProt Q15116).
T1 construct: expressed in transfected cells; host or cells: Jurkat
T1 sequence (Q15116 25-288): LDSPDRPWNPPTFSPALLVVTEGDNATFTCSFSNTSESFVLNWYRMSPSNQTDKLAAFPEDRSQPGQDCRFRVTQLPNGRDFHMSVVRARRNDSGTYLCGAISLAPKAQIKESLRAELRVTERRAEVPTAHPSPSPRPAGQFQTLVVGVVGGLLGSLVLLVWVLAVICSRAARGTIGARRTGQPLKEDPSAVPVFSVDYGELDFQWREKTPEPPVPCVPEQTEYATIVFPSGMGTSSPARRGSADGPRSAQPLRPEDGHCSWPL
Kind of experiment: Jurkat-PD-1 Cell Binding High-Content Screening Assay (CBA). It counts as cell-based. Conditions: Jurkat cell line over-expressing human PD-1; PE-labeled PD-L1-Ig 20 nM final; read-out: Jurkat hPD1-PDL1 IC50. The method in brief:
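Jurkat cells over-expressing human PD-1 (8×10^3 per well, DMEM/10% FCS) preincubated with compound 2 h at 37° C, then PE-labeled human PD-L1-Ig (20 nM final) added for 1 h. Cells fixed with paraformaldehyde, Hoechst-stained, and bound fluorescence quantified by high-content imaging.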
As to `CC(=O)NCCCC[C@@H]1NC(=O)[C@H](Cc2cccc(C)c2)NC(=O)[C@H](CC(=O)O)NC(=O)[C@H](Cc2ccc(OCC(=O)O)cc2)NC(=O)[C@H](Cc2ccc(NC(C)=O)cc2)NC(=O)CSC[C@@H](C(=O)N[C@@H](CCN)C(=O)NCCCCCCCCCCC(=O)O)NC(=O)[C@H](C(C)O)NC(=O)[C@H](C(C)C)NC(=O)[C@H](CC2CCCCC2)NC(=O)[C@H](CCN)NC(=O)[C@@H](CC(C)C)NC(=O)[C@H](CCCN)NC(=O)[C@H](CCCCNC(C)=O)NC(=O)[C@H](Cc2ccc(-c3ccccc3)cc2)NC1=O` (stereo partly drawn) [Compound 3602] ({CH2CO}-[Phe(4-NH2)](Ac)Y(Carboxymethyl)D[Phe(3-Me)]K(Ac)[Bip]K(Ac)[Orn][dL][Dab][Cha]V[Thr(3ξ)]C[Dab][Aun]-OH; thioether N-14), the half-inhibitory concentration (IC50) came out at 23.1 nM. On to `Cc1cccc(C[C@@H]2NC(=O)[C@H](CC(=O)O)NC(=O)[C@H](Cc3ccc(OCC(=O)O)cc3)NC(=O)[C@H](CCN)NC(=O)CSC[C@@H](C(=O)N[C@@H](CCN)C(=O)NCCCCCCCCCCC(=O)O)NC(=O)[C@H](CO)NC(=O)[C@H](C(C)(C)O)NC(=O)[C@H](CC3CCCCC3)NC(=O)[C@H](CCN)NC(=O)[C@@H](CC(C)C)NC(=O)[C@H](CCCN)NC(=O)[C@H](Cc3ccc(O)cc3)NC(=O)[C@H](Cc3ccc(-c4ccccc4)cc3)NC(=O)[C@H](Cc3ccc(C(N)=O)cc3)NC2=O)c1` [Compound 3603] ({CH2CO}-[Dab]Y(Carboxymethyl)D[Phe(3-Me)][Phe(4-CONH2)][Bip]Y[Orn][dL][Dab][Cha][Val(3-OH)]SC[Dab][Aun]-OH; thioether N-14), for which the IC50 worked out at 9.2 nM. In the case of `Cc1cccc(C[C@@H]2NC(=O)[C@H](CC(=O)O)NC(=O)[C@H](Cc3ccc(OCC(=O)O)cc3)NC(=O)[C@H](CCN)NC(=O)CSC[C@@H](C(=O)N[C@@H](CCN)C(=O)NCCCCCCCCCCC(=O)O)NC(=O)[C@H](CO)NC(=O)[C@H](C(C)(C)O)NC(=O)[C@H](CC3CCCCC3)NC(=O)[C@H](CCN)NC(=O)[C@@H](CC(C)C)NC(=O)[C@H](CCCN)NC(=O)[C@H](Cc3ccc(C(N)=O)cc3)NC(=O)[C@H](Cc3ccc(-c4ccccc4)cc3)NC(=O)[C@H](Cc3ccc(OCC(=O)O)cc3)NC2=O)c1` [Compound 3604] ({CH2CO}-[Dab]Y(Carboxymethyl)D[Phe(3-Me)]Y(Carboxymethyl)[Bip][Phe(4-CONH2)][Orn][dL][Dab][Cha][Val(3-OH)]SC[Dab][Aun]-OH; thioether N-14), the IC50 turned out to be 6.8 nM.

In the case of `Cc1cccc(C[C@@H]2NC(=O)[C@H](CC(=O)O)NC(=O)[C@H](Cc3ccc(OCC(=O)O)cc3)NC(=O)[C@H](C(C)O)NC(=O)CSC[C@@H](C(=O)N[C@@H](CCN)C(=O)NCCOCCOCC(=O)NCCCCCCCCCCC(=O)O)NC(=O)[C@H](CCCCN)NC(=O)[C@H](C(C)C)NC(=O)[C@H](CC3CCCCC3)NC(=O)[C@H](CCN)NC(=O)[C@@H](CC(C)C)NC(=O)[C@H](CCCN)NC(=O)[C@H](Cc3ccc(O)cc3)NC(=O)[C@H](Cc3ccc(-c4ccccc4)cc3)NC(=O)[C@H](Cc3ccc(O)cc3)NC2=O)c1` (stereo partly drawn) [Compound 3607] ({CH2CO}-[Thr(3ξ)]Y(Carboxymethyl)D[Phe(3-Me)]Y[Bip]Y[Orn][dL][Dab][Cha]VKC[Dab][AEEA][Aun]-OH; thioether N-14), the IC50 stood at 11.8 nM.

As to `Cc1cccc(C[C@@H]2NC(=O)[C@H](CC(=O)O)NC(=O)[C@H](Cc3ccc(OCC(=O)O)cc3)NC(=O)[C@H](CN)NC(=O)CSC[C@@H](C(=O)N[C@@H](CCCCN)C(=O)N[C@@H](CO)C(=O)NCCCCCCCCCCC(=O)O)NC(=O)[C@H](CCCN)NC(=O)[C@H](C(C)C)NC(=O)[C@H](CC3CCCCC3)NC(=O)[C@H](CCN)NC(=O)[C@@H](CC(C)C)NC(=O)[C@H](CCCN)NC(=O)[C@H](Cc3ccc(O)cc3)NC(=O)[C@H](Cc3ccc(-c4ccccc4)cc3)NC(=O)[C@H](C(C)C)NC2=O)c1` [Compound 3608] ({CH2CO}-[Dap]Y(Carboxymethyl)D[Phe(3-Me)]V[Bip]Y[Orn][dL][Dab][Cha]V[Orn]CKS[Aun]-OH; thioether N-14), the IC50 came to 52.7 nM.

`Cc1cccc(C[C@@H]2NC(=O)[C@H](CC(=O)O)NC(=O)[C@H](Cc3ccc(OCC(=O)O)cc3)NC(=O)[C@H](CCN)NC(=O)CSC[C@@H](C(=O)N[C@@H](CCN)C(=O)NCCOCCOCC(=O)NCCCCCCCCCCC(=O)O)NC(=O)[C@H](CCCN)NC(=O)[C@H](C(C)C)NC(=O)[C@H](CC3CCCCC3)NC(=O)[C@H](CCN)NC(=O)[C@@H](CC(C)C)NC(=O)[C@H](CCCN)NC(=O)[C@H](CCCCNC(=O)C(C)(C)C)NC(=O)[C@H](Cc3ccc(-c4ccccc4)cc3)NC(=O)[C@H](CCCCNC(=O)C(C)(C)C)NC2=O)c1` [Compound 3609] ({CH2CO}-[Dab]Y(Carboxymethyl)D[Phe(3-Me)]K(Piv)[Bip]K(Piv)[Orn][dL][Dab][Cha]V[Orn]C[Dab][AEEA][Aun]-OH; thioether N-14): the IC50 is 18.8 nM.

For `Cc1cccc(C[C@@H]2NC(=O)[C@H](CC(=O)O)NC(=O)[C@H](Cc3ccc(OCC(=O)O)cc3)NC(=O)[C@H](CCN)NC(=O)CSC[C@@H](C(=O)N[C@@H](CCN)C(=O)NCCOCCOCC(=O)NCCCCCCCCCCC(=O)O)NC(=O)[C@H](CCCN)NC(=O)[C@H](C(C)C)NC(=O)[C@H](CC3CCCCC3)NC(=O)[C@H](CCN)NC(=O)[C@@H](CC(C)C)NC(=O)[C@H](CCCN)NC(=O)[C@H](Cc3ccc(O)cc3)NC(=O)[C@H](Cc3ccc(-c4ccccc4)cc3)NC(=O)[C@H](CCCCNC(=O)C(C)(C)C)NC2=O)c1` [Compound 3610] ({CH2CO}-[Dab]Y(Carboxymethyl)D[Phe(3-Me)]K(Piv)[Bip]Y[Orn][dL][Dab][Cha]V[Orn]C[Dab][AEEA][Aun]-OH; thioether N-14), the IC50 amounted to 10.1 nM. Next, `Cc1cccc(C[C@@H]2NC(=O)[C@H](CC(=O)O)NC(=O)[C@H](Cc3ccc(OCC(=O)O)cc3)NC(=O)[C@H](CCN)NC(=O)CSC[C@@H](C(=O)N[C@@H](CCCN)C(=O)N[C@@H](CN)C(=O)NCCCCCCCCCCC(=O)O)NC(=O)[C@H](CCCN)NC(=O)[C@H](C(C)C)NC(=O)[C@H](CC3CCCCC3)NC(=O)[C@H](CCN)NC(=O)[C@@H](CC(C)C)NC(=O)[C@H](CCCN)NC(=O)[C@H](Cc3ccc(O)cc3)NC(=O)[C@H](Cc3ccc(-c4ccccc4)cc3)NC(=O)[C@H](CCCCNC(=O)C(C)(C)C)NC2=O)c1` [Compound 3612] ({CH2CO}-[Dab]Y(Carboxymethyl)D[Phe(3-Me)]K(Piv)[Bip]Y[Orn][dL][Dab][Cha]V[Orn]C[Orn][Dap][Aun]-OH; thioether N-14): 13.6 nM; `Cc1cccc(C[C@@H]2NC(=O)[C@H](CC(=O)O)NC(=O)[C@H](Cc3ccc(OCC(=O)O)cc3)NC(=O)[C@H](CCN)NC(=O)CSC[C@@H](C(=O)N[C@@H](CCCCN)C(=O)N[C@@H](CN)C(=O)NCCCCCCCCCCC(=O)O)NC(=O)[C@H](CCCCN)NC(=O)[C@H](C(C)C)NC(=O)[C@H](CC3CCCCC3)NC(=O)[C@H](CCN)NC(=O)[C@@H](CC(C)C)NC(=O)[C@H](CCCN)NC(=O)[C@H](Cc3ccc(O)cc3)NC(=O)[C@H](Cc3ccc(-c4ccccc4)cc3)NC(=O)[C@H](CCCCNC(=O)C(C)(C)C)NC2=O)c1` [Compound 3613] ({CH2CO}-[Dab]Y(Carboxymethyl)D[Phe(3-Me)]K(Piv)[Bip]Y[Orn][dL][Dab][Cha]VKCK[Dap][Aun]-OH; thioether N-14): 24.1 nM; `Cc1cccc(C[C@@H]2NC(=O)[C@H](CC(=O)O)NC(=O)[C@H](Cc3ccc(OCC(=O)O)cc3)NC(=O)[C@H](CCCNC(=O)C3CC3)NC(=O)CSC[C@@H](C(=O)N[C@@H](CCCN)C(=O)N[C@@H](CO)C(=O)NCCCCCCCCCCCC(=O)O)NC(=O)[C@H](CO)NC(=O)[C@H](CCCCN)NC(=O)[C@H](CC3CCCCC3)NC(=O)[C@H](CCN)NC(=O)[C@@H](CC(C)C)NC(=O)[C@H](CCCN)NC(=O)[C@H](Cc3ccc(OCC(=O)O)cc3)NC(=O)[C@H](Cc3ccc(-c4ccccc4)cc3)NC(=O)[C@H](Cc3ccc(OCC(=O)O)cc3)NC2=O)c1` [Compound 3614] ({CH2CO}-[Orn](Cyclopropanecarbonyl)Y(Carboxymethyl)D[Phe(3-Me)]Y(Carboxymethyl)[Bip]Y(Carboxymethyl)[Orn][dL][Dab][Cha]KSC[Orn]S[12Ado]-OH; thioether N-14): 9.7 nM. Consider `Cc1cccc(C[C@@H]2NC(=O)[C@H](CC(=O)O)NC(=O)[C@H](Cc3ccc(OCC(=O)O)cc3)NC(=O)[C@H](CCN)NC(=O)CSC[C@@H](C(=O)N[C@H](CC(N)=O)C(=O)NCCOCCOCC(=O)NCCCCCCCCCCC(=O)O)NC(=O)[C@H](CCCN)NC(=O)[C@H](C(C)C)NC(=O)[C@H](CC3CCCCC3)NC(=O)[C@H](CCN)NC(=O)[C@@H](CC(C)C)NC(=O)[C@H](CCCN)NC(=O)[C@H](Cc3ccc(O)cc3)NC(=O)[C@H](Cc3ccc(-c4ccccc4)cc3)NC(=O)[C@H](C(C)C)NC2=O)c1` [Compound 3616] ({CH2CO}-[Dab]Y(Carboxymethyl)D[Phe(3-Me)]V[Bip]Y[Orn][dL][Dab][Cha]V[Orn]C[dN][AEEA][Aun]-OH; thioether N-14), for which the IC50 amounted to 18.3 nM.

With `Cc1cccc(C[C@@H]2NC(=O)[C@H](CC(=O)O)NC(=O)[C@H](Cc3ccc(OCC(=O)O)cc3)NC(=O)[C@H](CCN)NC(=O)CSC[C@@H](C(=O)N[C@@H](CCCN)C(=O)N[C@@H](CO)C(=O)NCCCCCCCCCCCC(=O)O)NC(=O)[C@H](CO)NC(=O)[C@H](C(C)(C)O)NC(=O)[C@H](CC3CCCCC3)NC(=O)[C@H](CCN)NC(=O)[C@@H](CC(C)C)NC(=O)[C@H](CCCN)NC(=O)[C@H](Cc3ccc(OCC(=O)O)cc3)NC(=O)[C@H](Cc3ccc(-c4ccccc4)cc3)NC(=O)[C@H](Cc3ccc(OCC(=O)O)cc3)NC2=O)c1` [Compound 3617] ({CH2CO}-[Dab]Y(Carboxymethyl)D[Phe(3-Me)]Y(Carboxymethyl)[Bip]Y(Carboxymethyl)[Orn][dL][Dab][Cha][Val(3-OH)]SC[Orn]S[12Ado]-OH; thioether N-14), the IC50 is 78.8 nM.
